The NIST ThermoML archive (doi:10.1016/j.fluid.2012.08.030)

Columns and labels:
[1] = xn = mol fraction of the nth substance listed; conditions: 101 kPa, Liquid, Vibrating tube method
[2] = Liquid; for mass density: 101 kPa, Vibrating tube method; for vapor or sublimation pressure: Ebulliometric method (Recirculating still)

CN1CCCC1=O [N-methylpyrrolidone] + CCOCCO
[1], x1 = 1
Conditions	mass density [kg/m3]
303.15 K	1023.45
308.15 K	1019.34
313.15 K	1014.82
318.15 K	1010.06

CCOCCO [2-ethoxyethan-1-ol]
[2]
Conditions	mass density [kg/m3]	vapor or sublimation pressure [kPa]
303.15 K	921.21	–
308.15 K	916.48	–
313.15 K	911.88	–
318.15 K	907.79	–
373.48 K	–	28.1
378.36 K	–	34.2
383.18 K	–	41.3
387.06 K	–	47.9
390.12 K	–	53.7
393.37 K	–	60.5
396.86 K	–	68.6
399.9 K	–	76.4
401.65 K	–	81.2
404.22 K	–	88.7
406.33 K	–	95.3

CN1CCCC1=O [N-methylpyrrolidone] + COCCO
[1], x1 = 1
Conditions	mass density [kg/m3]
303.15 K	1023.45
308.15 K	1019.34
313.15 K	1014.82
318.15 K	1010.06

CCCCOCCO [2-butoxyethan-1-ol] + CN1CCCC1=O
mass density [kg/m3], [1]
Conditions	303.15 K	308.15 K	313.15 K	318.15 K
x2 = 0	892.28	888.19	884.17	880.02
x2 = 0.132	914.72	911.2	907.8	904.37
x2 = 0.255	934.22	931.07	928.06	925.08
x2 = 0.369	951.2	948.27	945.46	942.72
x2 = 0.477	966.04	963.19	960.43	957.74
x2 = 0.577	979	976.12	973.27	970.48
x2 = 0.672	990.36	987.35	984.32	981.3
x2 = 0.761	1000.3	997.1	993.8	990.46
x2 = 0.845	1009.04	1005.59	1001.93	998.18
x2 = 0.925	1016.72	1012.95	1008.89	1004.66
x2 = 0.948	1018.83	1014.97	1010.77	1006.39
x2 = 0.963	1020.19	1016.26	1011.97	1007.49
x2 = 0.978	1021.52	1017.52	1013.14	1008.55
x2 = 0.993	1022.82	1018.74	1014.27	1009.57

CCCCOCCO [2-butoxyethan-1-ol]
[2]
Conditions	mass density [kg/m3]	vapor or sublimation pressure [kPa]
303.15 K	892.28	–
308.15 K	888.19	–
313.15 K	884.17	–
318.15 K	880.02	–
406.8 K	–	28.1
412.1 K	–	34.2
417.35 K	–	41.3
421.57 K	–	47.9
424.9 K	–	53.7
428.43 K	–	60.5
432.22 K	–	68.6
435.52 K	–	76.4
437.42 K	–	81.2
440.2 K	–	88.7
442.49 K	–	95.3

CN1CCCC1=O [N-methylpyrrolidone]
[2]
Conditions	mass density [kg/m3]	vapor or sublimation pressure [kPa]
303.15 K	1023.45	–
308.15 K	1019.34	–
313.15 K	1014.82	–
318.15 K	1010.06	–
430.09 K	–	28.1
436.5 K	–	34.2
442.88 K	–	41.3
448.05 K	–	47.9
452.13 K	–	53.7
456.48 K	–	60.5
461.17 K	–	68.6
465.29 K	–	76.4
467.66 K	–	81.2
471.15 K	–	88.7
474.01 K	–	95.3

CN1CCCC1=O [N-methylpyrrolidone] + CCCCOCCO
[1], x1 = 1
Conditions	mass density [kg/m3]
303.15 K	1023.45
308.15 K	1019.34
313.15 K	1014.82
318.15 K	1010.06
